Series [1] relates to C3H 10T1/2. Put plainly: Induction of osteogenesis in mouse C3H10T1/2 cells assessed as increase in alkaline phosphatase activity at 2 uM after 72 hrs by ALP assay. The format is functional.
Series [2] has as its system C3H 10T1/2. The series can be described thus: Induction of osteogenesis in mouse C3H10T1/2 cells assessed as increase in alkaline phosphatase activity after 72 hrs by ALP assay. It counts as functional, cell-based.
A further series deals with HepG2. The series can be described thus: Cytotoxicity against human HepG2 cells at 0.1 to 25 uM after 24 hrs by WST-1 assay. It counts as cell-based. The note with it: hepg2, 24 h. (Tetrazolium dyes change colour on reduction, which living cells bring about.)
Another series has as its system C2C12. The series can be described thus: Cytotoxicity against mouse C2C12 cells at 0.1 to 25 uM after 24 hrs by WST-1 assay. The format is cell-based. The note with it: c2c12, 24 h.
In series [3] the test system is C3H 10T1/2. The series can be described thus: Induction of osteogenesis in mouse C3H10T1/2 cells using BCIP as substrate assessed as increase in alkaline phosphatase activity at 0.25 to 4 uM after 72 hrs by nitroblue tetrazolium chloride staining-based assay. The format is functional, cell-based.
Series [4] relates to C3H 10T1/2. The series can be described thus: Induction of osteogenesis in mouse C3H10T1/2 cells assessed as calcium deposition at 4 uM by Alizarin Red S staining-based assay. The format is functional, cell-based.
Series [5] is described as follows: Cytotoxicity against mouse 3T3L1 cells at 0.1 to 25 uM after 24 hrs by WST-1 assay. It counts as cell-based. The settings on record: 3t3-l1, 24 h.
For the next series, the system named is L6. Put plainly: Cytotoxicity against rat L6 cells at 0.1 to 25 uM after 24 hrs by WST-1 assay. The format is cell-based. The note with it: l6, 24 h.
The test system of the next series is PC-3. The series can be described thus: Cytotoxicity against human PC3 cells at 0.1 to 25 uM after 24 hrs by WST-1 assay. The format is cell-based. The settings on record: pc-3, 24 h.
The nature of series [6]: Cytotoxicity against human CaSki cells at 0.1 to 25 uM after 24 hrs by WST-1 assay. It counts as cell-based. The note with it: ca-ski.
The subject of a further series is DU-145. The series can be described thus: Cytotoxicity against human DU145 cells at 0.1 to 25 uM after 24 hrs by WST-1 assay. The format is cell-based. The note with it: du-145, 24 h.
The next series relates to HeLa. Put plainly: Cytotoxicity against human HeLa cells at 0.1 to 25 uM after 24 hrs by WST-1 assay. The format is cell-based.
The test system of series [7] is Mus musculus. The series can be described thus: Induction of osteogenesis in ovariectomized C57BL/6 mouse model assessed as increase in […] at 5 to 10 mg/kg/day, po administered 5 days per week for 4 weeks by dual-energy X-ray absorptiometry relative to vehicle-treated control. The format is functional.
The subject of series [8] is Mus musculus. The series can be described thus: Induction of osteogenesis in ovariectomized C57BL/6 mouse model assessed as increase in bone volume at 10 mg/kg/day, po administered 5 days per week for 4 weeks by micro-CT analysis relative to vehicle-treated control. It counts as functional, organism-based.
Series [9] relates to Mus musculus. The series can be described thus: Induction of osteogenesis in ovariectomized C57BL/6 mouse model assessed as increase in trabecular number at 10 mg/kg/day, po administered 5 days per week for 4 weeks by micro-CT analysis relative to vehicle-treated control. It counts as functional, organism-based. The settings on record: Trabecula.
Series [10] has as its system Mus musculus. Put plainly: Induction of osteogenesis in ovariectomized C57BL/6 mouse model assessed as reduction in trabecular space at 10 mg/kg/day, po administered 5 days per week for 4 weeks by micro-CT analysis relative to vehicle-treated control. The format is functional, organism-based. The settings on record: Trabecula.
Series [11] deals with C3H 10T1/2. Put plainly: Activation of proto-oncogene protein Wnt/beta-catenin signaling (unknown origin) transfected in mouse C3H10T1/2 cells assessed as increase in transcriptional activity at 2 uM after 48 hrs by TOPflash luciferase reporter gene assay. It counts as cell-based. The settings on record: Homo sapiens. A general note: In a reporter assay the amount or activity of a reporter protein is the signal.

The structures appear in SMILES notation. Calls of active or inactive are those of the source. The calls are words filed in the database; no cut-off is given here.

As for `CC1(C)C=C(c2cccc(N)c2)c2ccc(O)cc2O1`, the “fold change (FC)” value in the series with C3H 10T1/2 [1] is reported as 2.5.

On to `CC1(C)C=C(c2ccc([N+](=O)[O-])cc2)c2ccc(O)cc2O1`, for which the “fold change (FC)” value with C3H 10T1/2 [1] turned out to be 3.1.

Take `CC1(C)CC(c2ccoc2)c2ccc(O)cc2O1` (stereo unspecified): the result with C3H 10T1/2 [2] was inactive.

Turning to `CC1(C)C=C(c2cc(Cl)cc(Cl)c2)c2ccc(O)cc2O1`, the “fold change (FC)” value in the series with C3H 10T1/2 [1] worked out at 1.5.

`CC1(C)C=C(c2ccccc2[N+](=O)[O-])c2ccc(O)cc2O1`: in the series with C3H 10T1/2 [1], the “fold change (FC)” value is recorded as 1.2.

In the case of `CC(=O)c1cccc(C2=CC(C)(C)Oc3cc(O)ccc32)c1`, the “fold change (FC)” value in the series on C3H 10T1/2 [1] came to 1.9.

As for `CC1(C)CC(c2cccs2)c2ccc(O)cc2O1` (stereo unspecified), in the series with C3H 10T1/2 [2], the outcome was inactive.

In the case of `CC1(C)C=C(c2cccc(O)c2)c2ccc(O)cc2O1`, the “fold change (FC)” value in the series on C3H 10T1/2 [1] was determined as 1.4.

Regarding `CN(C)c1cccc(C2=CC(C)(C)Oc3cc(O)ccc32)c1`, the “fold change (FC)” value in the series with C3H 10T1/2 [1] came out at 1.6.

With `CC1(C)CC(c2cccnc2)c2ccc(O)cc2O1` (stereo unspecified), the outcome in the series with C3H 10T1/2 [2] was inactive.

Turning to `CC1(C)CC(c2ccc([N+](=O)[O-])cc2)c2cc(-c3cccc(O)c3)ccc2O1` (stereo unspecified), in the series on C3H 10T1/2 [2], the result was inactive.

As for `COc1ccc2c(c1O)OC(C)(C)C=C2c1cccc([N+](=O)[O-])c1`, the “fold change (FC)” value with C3H 10T1/2 [1] was determined as 1.5.

As to `O=[N+]([O-])c1cccc(C2=CC3(CCCC3)Oc3cc(O)ccc32)c1`, the “fold change (FC)” value in the series on C3H 10T1/2 [1] was 0.6.

With `CC1(C)C=C(c2cccc([N+](=O)[O-])c2)c2ccc(O)cc2O1`, the Activity entry in the series with HepG2 was “Non-toxic”; with C2C12, “Non-toxic”; with C3H 10T1/2 [2], “Dose-dependent effect”; in the series with C3H 10T1/2 [3], “Dose-dependent effect”; in [5], “Non-toxic”; in the series on L6 it was “Non-toxic”. Besides, the Activity result is “Non-toxic” in the series with PC-3; “Non-toxic” in [6]; “Non-toxic” in the series with DU-145; “Non-toxic” in the series on HeLa; 37% in the series with Mus musculus [7]. Besides, the “fold change (FC)” value with C3H 10T1/2 [1] stood at 6.8. Further, the outcome in the series with C3H 10T1/2 [4], with Mus musculus [8], in the series on Mus musculus [9], with Mus musculus [10] and in the series with C3H 10T1/2 [11] was Active.

As for `CN(C)c1ccc(C2=CC(C)(C)Oc3cc(O)ccc32)cc1`, the “fold change (FC)” value in the series on C3H 10T1/2 [1] turned out to be 0.7.

With `Cc1n[nH]c(C)c1C1CC(C)(C)Oc2cc(O)ccc21` (stereo unspecified), the outcome in the series on C3H 10T1/2 [2] was inactive.

For `CCOC(=O)CCC1(C)C=C(c2cccc([N+](=O)[O-])c2)c2ccc(O)cc2O1` (stereo unspecified), the “fold change (FC)” value in the series with C3H 10T1/2 [1] is given as 1.4.

For the molecule `CC1(C)CC(c2ccccc2)c2ccc(O)cc2O1` (stereo unspecified), the outcome in the series on C3H 10T1/2 [2] was inactive.

In the case of `CC1(C)CC(c2ccc([N+](=O)[O-])cc2)c2cc(Cl)cc(-c3cccc(O)c3)c2O1` (stereo unspecified), the outcome with C3H 10T1/2 [2] was inactive.

Take `CC1(C)C=C(c2ccc(N)cc2)c2ccc(O)cc2O1`: the “fold change (FC)” value in the series on C3H 10T1/2 [1] is given as 3.9.
